Reference: paper PMC11079024, “Identification of a family of species-selective complex I inhibitors as potential anthelmintics” (Nature Communications, 2024)
“And” between values parts separate entries of the source, which are not always exact repeats. Identical values can stand only once. Like-named read-outs stand apart in the source and are kept apart here.

Key:
[1] = in vitro; details: human, HEK293 Cell Viability Assay LC50
[2] = system: L1 wild-type C. elegans; details: […]; for KCN survival assay value relative to DMSO control, Mean: mean of replicates
[3] = target: C. elegans (N2) complex I (NADH:ubiquinone oxidoreductase) (Caenorhabditis elegans, UniProt P24887+Q93873+Q94360); assay: biochemical; type: biochemical
In short: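 Mitochondria from liquid-cultured adults were freeze-thawed thrice before the 15-min DCIP-coupled NADH oxidation read.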

Chain of C. elegans (N2) complex I (NADH:ubiquinone oxidoreductase) (Q94360 17-199): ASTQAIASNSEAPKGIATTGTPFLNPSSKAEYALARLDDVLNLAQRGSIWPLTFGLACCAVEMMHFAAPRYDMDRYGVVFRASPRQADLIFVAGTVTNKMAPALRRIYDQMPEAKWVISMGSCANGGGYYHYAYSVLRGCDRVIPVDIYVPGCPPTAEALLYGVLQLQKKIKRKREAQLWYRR
Chain of C. elegans (N2) complex I (NADH:ubiquinone oxidoreductase) (P24887 whole entry): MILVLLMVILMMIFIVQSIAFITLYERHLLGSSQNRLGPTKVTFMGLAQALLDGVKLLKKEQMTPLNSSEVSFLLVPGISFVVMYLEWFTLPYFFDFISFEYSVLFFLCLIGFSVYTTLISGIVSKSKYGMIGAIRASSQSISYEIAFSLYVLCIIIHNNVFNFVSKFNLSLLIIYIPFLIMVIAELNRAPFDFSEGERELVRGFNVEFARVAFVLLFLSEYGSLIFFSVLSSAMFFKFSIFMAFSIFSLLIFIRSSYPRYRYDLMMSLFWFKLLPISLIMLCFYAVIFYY
Chain of C. elegans (N2) complex I (NADH:ubiquinone oxidoreductase) (Q93873 31-482): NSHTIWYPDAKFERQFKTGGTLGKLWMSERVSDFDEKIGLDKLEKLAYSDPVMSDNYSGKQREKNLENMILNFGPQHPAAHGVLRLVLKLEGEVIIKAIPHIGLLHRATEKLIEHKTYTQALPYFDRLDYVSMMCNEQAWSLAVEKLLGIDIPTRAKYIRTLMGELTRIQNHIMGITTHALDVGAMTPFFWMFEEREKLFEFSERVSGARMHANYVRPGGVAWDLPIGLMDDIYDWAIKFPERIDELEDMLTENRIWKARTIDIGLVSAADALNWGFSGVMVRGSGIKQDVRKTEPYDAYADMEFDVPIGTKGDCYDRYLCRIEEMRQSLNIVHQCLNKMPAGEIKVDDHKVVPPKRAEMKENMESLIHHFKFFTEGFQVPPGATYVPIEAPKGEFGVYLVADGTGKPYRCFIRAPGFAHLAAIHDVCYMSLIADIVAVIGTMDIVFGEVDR

Cc1nc2ccccc2n1Cc1ccc(Cl)cc1 [STK697993]
CC50 at 2 days [1]: > 100000 nM
Screen "Hit" ([2]; 50 μM compound, hit = relative motility below 0.25 3 hours after removal of KCN): Y (hits were identified as compounds that reduced relative motility below 0.25 (75% reduction))
Relative Motility ([2]; 50 μM compound, worm motility 3 hours after removal of KCN, relative to DMSO controls, single biological replicate): 0.000
KCN survival assay value relative to DMSO control, Mean ([2]; dose 3.1 µM): 1.037
KCN survival assay value relative to DMSO control, Mean ([2]; dose 6.3 µM): 1.001
KCN survival assay value relative to DMSO control, Mean ([2]; dose 12.5 µM): 0.717
KCN survival assay value relative to DMSO control, Mean ([2]; dose 25 µM): 0.059
KCN survival assay value relative to DMSO control, Mean ([2]; dose 50 µM): 0.046
remaining activity at 0.0001 µM ([3]; C. elegans mitochondria, 0.0001 µM, Mean, read-out: in vitro complex I activity relative to solvent control): 93.5%
remaining activity at 0.0001 µM ([3]; C. elegans mitochondria, 0.0001 µM, single replicate, read-out: in vitro complex I activity relative to solvent control): 90.1%
remaining activity at 0.0005 µM ([3]; C. elegans mitochondria, 0.0005 µM, Mean, read-out: in vitro complex I activity relative to solvent control): 93.4%
remaining activity at 0.0005 µM ([3]; C. elegans mitochondria, 0.0005 µM, single replicate, read-out: in vitro complex I activity relative to solvent control): 89.1%
remaining activity at 0.001 µM ([3]; C. elegans mitochondria, 0.001 µM, Mean, read-out: in vitro complex I activity relative to solvent control): 92.2%
remaining activity at 0.0025 µM ([3]; C. elegans mitochondria, 0.0025 µM, Mean, read-out: in vitro complex I activity relative to solvent control): 89.9%
remaining activity at 0.005 µM ([3]; C. elegans mitochondria, 0.005 µM, Mean, read-out: in vitro complex I activity relative to solvent control): 93.8%
remaining activity at 0.013 µM ([3]; C. elegans mitochondria, 0.013 µM, Mean, read-out: in vitro complex I activity relative to solvent control): 89.4%
remaining activity at 0.025 µM ([3]; C. elegans mitochondria, 0.025 µM, Mean, read-out: in vitro complex I activity relative to solvent control): 79.6%
remaining activity at 0.025 µM ([3]; C. elegans mitochondria, 0.025 µM, single replicate, read-out: in vitro complex I activity relative to solvent control): 81.1%
remaining activity at 0.063 µM ([3]; C. elegans mitochondria, 0.063 µM, Mean, read-out: in vitro complex I activity relative to solvent control): 59.3%
remaining activity at 0.063 µM ([3]; C. elegans mitochondria, 0.063 µM, single replicate, read-out: in vitro complex I activity relative to solvent control): 58.9%
remaining activity at 0.125 µM ([3]; C. elegans mitochondria, 0.125 µM, Mean, read-out: in vitro complex I activity relative to solvent control): 46.1%
remaining activity at 0.125 µM ([3]; C. elegans mitochondria, 0.125 µM, single replicate, read-out: in vitro complex I activity relative to solvent control): 47%
remaining activity at 0.313 µM ([3]; C. elegans mitochondria, 0.313 µM, Mean, read-out: in vitro complex I activity relative to solvent control): 24.1%
remaining activity at 0.313 µM ([3]; C. elegans mitochondria, 0.313 µM, single replicate, read-out: in vitro complex I activity relative to solvent control): 23.6%
remaining activity at 0.625 µM ([3]; C. elegans mitochondria, 0.625 µM, Mean, read-out: in vitro complex I activity relative to solvent control): 15.5%
remaining activity at 0.625 µM ([3]; C. elegans mitochondria, 0.625 µM, single replicate, read-out: in vitro complex I activity relative to solvent control): 16.8%
remaining activity at 1.5 µM ([3]; C. elegans mitochondria, 1.5 µM, Mean, read-out: in vitro complex I activity relative to solvent control): 6.88%
remaining activity at 3 µM ([3]; C. elegans mitochondria, 3 µM, Mean, read-out: in vitro complex I activity relative to solvent control): 4.54%
remaining activity at 15 µM ([3]; C. elegans mitochondria, 15 µM, Mean, read-out: in vitro complex I activity relative to solvent control): 3.15%
remaining activity at 37.5 µM ([3]; C. elegans mitochondria, 37.5 µM, Mean, read-out: in vitro complex I activity relative to solvent control): 1.66%
remaining activity at 75 µM ([3]; C. elegans mitochondria, 75 µM, Mean, read-out: in vitro complex I activity relative to solvent control): 1.29%
remaining activity at 0.0001 µM ([3]; dose 0.0001 µM, wild-type C. elegans, mean of replicates, read-out: in vitro complex I activity relative to solvent control, Mean): 93.5%
in vitro complex I activity relative to solvent control, individual replicate ([3]; dose 0.0001 µM, wild-type C. elegans, single replicate): 99.582% and 83.147% and 101.146%
remaining activity at 0.0001 µM ([3]; dose 0.0001 µM, wild-type C. elegans, single replicate, read-out: in vitro complex I activity relative to solvent control, individual replicate): 90.1%
remaining activity at 0.0005 µM ([3]; dose 0.0005 µM, wild-type C. elegans, mean of replicates, read-out: in vitro complex I activity relative to solvent control, Mean): 93.4%
in vitro complex I activity relative to solvent control, individual replicate ([3]; dose 0.0005 µM, wild-type C. elegans, single replicate): 96.982% and 84.926% and 102.628%
remaining activity at 0.0005 µM ([3]; dose 0.0005 µM, wild-type C. elegans, single replicate, read-out: in vitro complex I activity relative to solvent control, individual replicate): 89.1%
remaining activity at 0.001 µM ([3]; dose 0.001 µM, wild-type C. elegans, mean of replicates, read-out: in vitro complex I activity relative to solvent control, Mean): 92.2%
in vitro complex I activity relative to solvent control, individual replicate ([3]; dose 0.001 µM, wild-type C. elegans, single replicate): 93.635% and 85.360% and 84.052% and 105.930%
remaining activity at 0.0025 µM ([3]; dose 0.0025 µM, wild-type C. elegans, mean of replicates, read-out: in vitro complex I activity relative to solvent control, Mean): 89.9%
in vitro complex I activity relative to solvent control, individual replicate ([3]; dose 0.0025 µM, wild-type C. elegans, single replicate): 94.908% and 85.958% and 78.987% and 99.629%
remaining activity at 0.005 µM ([3]; dose 0.005 µM, wild-type C. elegans, mean of replicates, read-out: in vitro complex I activity relative to solvent control, Mean): 93.8%
in vitro complex I activity relative to solvent control, individual replicate ([3]; dose 0.005 µM, wild-type C. elegans, single replicate): 110.821% and 90.887% and 82.153% and 91.307%
remaining activity at 0.013 µM ([3]; dose 0.013 µM, wild-type C. elegans, mean of replicates, read-out: in vitro complex I activity relative to solvent control, Mean): 89.4%
in vitro complex I activity relative to solvent control, individual replicate ([3]; dose 0.013 µM, wild-type C. elegans, single replicate): 104.424% and 80.938% and 77.600% and 94.576%
remaining activity at 0.025 µM ([3]; dose 0.025 µM, wild-type C. elegans, mean of replicates, read-out: in vitro complex I activity relative to solvent control, Mean): 79.6%
in vitro complex I activity relative to solvent control, individual replicate ([3]; dose 0.025 µM, wild-type C. elegans, single replicate): 79.265% and 72.113% and 85.782%
remaining activity at 0.025 µM ([3]; dose 0.025 µM, wild-type C. elegans, single replicate, read-out: in vitro complex I activity relative to solvent control, individual replicate): 81.1%
remaining activity at 0.063 µM ([3]; dose 0.063 µM, wild-type C. elegans, mean of replicates, read-out: in vitro complex I activity relative to solvent control, Mean): 59.3%
in vitro complex I activity relative to solvent control, individual replicate ([3]; dose 0.063 µM, wild-type C. elegans, single replicate): 58.500% and 52.939% and 67.015%
remaining activity at 0.063 µM ([3]; dose 0.063 µM, wild-type C. elegans, single replicate, read-out: in vitro complex I activity relative to solvent control, individual replicate): 58.9%
remaining activity at 0.125 µM ([3]; dose 0.125 µM, wild-type C. elegans, mean of replicates, read-out: in vitro complex I activity relative to solvent control, Mean): 46.1%
in vitro complex I activity relative to solvent control, individual replicate ([3]; dose 0.125 µM, wild-type C. elegans, single replicate): 44.996% and 42.086% and 50.202%
remaining activity at 0.125 µM ([3]; dose 0.125 µM, wild-type C. elegans, single replicate, read-out: in vitro complex I activity relative to solvent control, individual replicate): 47%
remaining activity at 0.313 µM ([3]; dose 0.313 µM, wild-type C. elegans, mean of replicates, read-out: in vitro complex I activity relative to solvent control, Mean): 24.1%
in vitro complex I activity relative to solvent control, individual replicate ([3]; dose 0.313 µM, wild-type C. elegans, single replicate): 25.635% and 20.651% and 26.550%
remaining activity at 0.313 µM ([3]; dose 0.313 µM, wild-type C. elegans, single replicate, read-out: in vitro complex I activity relative to solvent control, individual replicate): 23.6%
remaining activity at 0.625 µM ([3]; dose 0.625 µM, wild-type C. elegans, mean of replicates, read-out: in vitro complex I activity relative to solvent control, Mean): 15.5%
in vitro complex I activity relative to solvent control, individual replicate ([3]; dose 0.625 µM, wild-type C. elegans, single replicate): 15.276% and 17.385% and 12.484%
remaining activity at 0.625 µM ([3]; dose 0.625 µM, wild-type C. elegans, single replicate, read-out: in vitro complex I activity relative to solvent control, individual replicate): 16.8%
remaining activity at 1.5 µM ([3]; dose 1.5 µM, wild-type C. elegans, mean of replicates, read-out: in vitro complex I activity relative to solvent control, Mean): 6.88%
in vitro complex I activity relative to solvent control, individual replicate ([3]; dose 1.5 µM, wild-type C. elegans, single replicate): 4.958% and 1.160% and 6.055% and 15.327%
remaining activity at 3 µM ([3]; dose 3 µM, wild-type C. elegans, mean of replicates, read-out: in vitro complex I activity relative to solvent control, Mean): 4.54%
in vitro complex I activity relative to solvent control, individual replicate ([3]; dose 3 µM, wild-type C. elegans, single replicate): 0.589% and 7.541% and 4.494% and 5.523%
remaining activity at 15 µM ([3]; dose 15 µM, wild-type C. elegans, mean of replicates, read-out: in vitro complex I activity relative to solvent control, Mean): 3.15%
in vitro complex I activity relative to solvent control, individual replicate ([3]; dose 15 µM, wild-type C. elegans, single replicate): 6.941% and 0.000% and 2.528% and 3.137%
remaining activity at 37.5 µM ([3]; dose 37.5 µM, wild-type C. elegans, mean of replicates, read-out: in vitro complex I activity relative to solvent control, Mean): 1.66%
in vitro complex I activity relative to solvent control, individual replicate ([3]; dose 37.5 µM, wild-type C. elegans, single replicate): 3.595% and 0.000% and 3.039%
remaining activity at 75 µM ([3]; dose 75 µM, wild-type C. elegans, mean of replicates, read-out: in vitro complex I activity relative to solvent control, Mean): 1.29%
in vitro complex I activity relative to solvent control, individual replicate ([3]; dose 75 µM, wild-type C. elegans, single replicate): 0.000% and 3.223% and 1.928%
IC50 ([3]; in vitro complex I dose response on C. elegans mitochondria, average of at least two biological replicates, fit in R (DRC), read-out: IC50 C. elegans complex I): 110 nM
Log IC50 C. elegans complex I ([3]; log10 of IC50 in µM, C. elegans mitochondria): -0.96 µM
IC50 ([3]; wild-type (N2) mitochondria, read-out: C. elegans Complex I IC50): 110 nM
IC50 ([3]; wild-type (N2) mitochondria, read-out: C. elegans complex I IC50): 112 nM
IC50 ([3]; wild-type C. elegans mitochondria, estimated from fitted dose-response curves, read-out: C. elegans Complex I IC50): 110 nM
